Results as given in PubChem BioAssay AID1208 (EPA DSSTox, 2008).
Calls of active or inactive are those of the source.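 Rule for the calls: active = at least one rat sex group has a carcinogenic potency value and tumor site recorded; inconclusive = only rat studies were judged inadequate by the national testing program; inactive = no potency or tumor site, with negative rat experiments.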

Test system: rat chronic carcinogenicity bioassay, TD50
Experiment: DSSTox (CPDBAS) Carcinogenic Potency Database Summary Rat Bioassay Results
Details: for Potency: stronger effect = lower value
Excerpt: The Carcinogenic Potency Database (CPDB) is a unique and widely used international resource of the results of over 6500 chronic, long-term animal cancer tests on over 1500 chemical substances. The CPDB provides easy access to the bioassay literature, with qualitative and quantitative analyses of both positive and negative experiments that have been published over the past 50 years in the general literature and by the National Cancer Institute/National Toxicology Program. The CPDB standardizes the diverse literature of cancer bioassays that vary widely in protocol, histopathological examination and nomenclature, and in the published author's choices of what information to provide in their papers. Results are reported in the CPDB for tests in rats, mice, hamsters, dogs, and nonhuman primates, and are based on the most positive result among all experiments for each sex-species. The DSSTox CPDBAS (all species) file incorporates data from the CPDB Summary Tables for the full list of over 1500 chemical substances tested in at least one species. Summary bioassay results for Rat (TD50, tumor sites, male, female, both sexes) are provided in the CPDB Summary Tables and the DSSTox CPDBAS file for over 1200 chemical substances.
TD50 is a standardized quantitative measure of carcinogenic potency (analogous to an LD50) and is reported in the CPDB Summary Table for each species. Activity Score for actives is computed by mapping of LOG10 (1/TD50_Rat_mmol) activity values spanning range [MIN, MAX] onto Integer 1-100 Activity Score range, where 100 is highest potency and 1 is lowest: Activity Score = 100 * INTEGER[(log10(1/Activity) - MIN)/(MAX - MIN)]. If activity is reported but no TD50_Rat_mmol value is computed, such as for a mixture, the Activity Score is assigned the activity value "50". […] Target sites are reported for each sex-species group with a positive result in the CPDB on the basis of a positive author's opinion for the particular site, using all results from both the general literature and NCI/NTP bioassays. If a chemical has two or more target sites listed, the results may be from different experiments, and a single site may be a target organ in more than one experiment, as well. Blank entry in TargetSites field indicates no results reported.

[1] = TD50_Rat_Note: no positive results
[2] = TD50_Rat_Note: TD50 is harmonic mean of more than one positive test, TargetSites_Rat_Female: adrenal gland
[3] = TD50_Rat_Note: no positive results, TargetSites_Rat_Female: no positive results
[4] = TargetSites_Rat_Female: no positive results
[5] = TD50_Rat_Note: TD50 is harmonic mean of more than one positive test, TargetSites_Rat_Female: liver

**Q.** `CC(C)Oc1ccccc1OC(=O)N(C)N=O` was tested. Which Potency did it give?
**A.** 0.364 mg/kg/day

**Q.** With `CCC(CC)[N+](=O)[O-]` as the compound, how does the Potency read?
**A.** 2.37 mg/kg/day

**Q.** For `CNC[C@H](O)c1ccc(O)c(O)c1`, which outcome (TD50_Rat_Note: only experiment is NCI/NTP bioassay inadequate, TargetSites_Rat_Female: NTP bioassay inadequate) is on record?
**A.** ntp bioassay inadequate

**Q.** For `NNc1nc(-c2ccc([N+](=O)[O-])o2)cs1`, which Potency (TD50_Rat_Note: TD50 is harmonic mean of more than one positive test, TargetSites_Rat_Female: kidney, mammary gland) is on record?
**A.** 3.19 mg/kg/day

**Q.** With `CN(N=O)C(=O)NCCC[C@H](N)C(=O)O` as the compound, how does the Potency (TD50_Rat_Note: positive test results only by intraperitoneal or intravenous injection, TD50 is harmonic mean of more than one positive, TargetSites_Rat_Female: kidney, mammary gland, pancreas, skin) read?
**A.** 0.787 mg/kg/day

**Q.** For `CC(O)CN(CC(C)O)CC(C)O` (stereo not given), which outcome [1] is on record?
**A.** inactive; no positive results

**Q.** How did the Potency (TD50_Rat_Note: positive test results only by intraperitoneal or intravenous injection, TD50_Rat_mmol was not calculated for this mixtur) turn out when `CC1=CC(C)(C)N(N=O)c2ccccc21` was run?
**A.** 3.31 mg/kg/day

**Q.** Which Potency (TD50_Rat_Note: TD50 is harmonic mean of more than one positive test, TargetSites_Rat_Female: stomach, urinary bladder) does the source give for `Nc1ccc(Cl)cc1N` here?
**A.** 214 mg/kg/day

**Q.** With `O=C1OC(c2ccc(O)cc2)(c2ccc(O)cc2)c2ccccc21` as the compound, how does the Potency [2] read?
**A.** 902 mg/kg/day

**Q.** Which outcome [3] does the source give for `CBr` here?
**A.** inactive; no positive results

**Q.** How did the outcome [3] turn out when `CCN(CC)C(=S)S[Te](SC(=S)N(CC)CC)(SC(=S)N(CC)CC)SC(=S)N(CC)CC` was run?
**A.** inactive; no positive results

**Q.** For `NC(Cc1ccc(O)c(O)c1)C(=O)O` (stereo not given), which outcome [1] is on record?
**A.** inactive; no positive results

**Q.** Which Potency (TD50_Rat_Note: TD50 is harmonic mean of more than one positive test, TD50_Rat_mmol was not calculated for this mixture, but Activiity S, TargetSites_Rat_Female: stomach) does the source give for `COc1cccc2c1cc([N+](=O)[O-])c1c(C(=O)O)cc3c(c12)OCO3` here?
**A.** 0.0141 mg/kg/day

**Q.** For `O=C(O)/C=C/c1ccc(O)c(O)c1`, which Potency (TD50_Rat_Note: TD50 is harmonic mean of more than one positive test, TargetSites_Rat_Female: stomach) is on record?
**A.** 297 mg/kg/day

**Q.** Which outcome [3] does the source give for `O=C(N[C@H](CO)[C@H](O)c1ccc([N+](=O)[O-])cc1)C(Cl)Cl` here?
**A.** inactive

**Q.** Which Potency (TD50_Rat_Note: TD50 is harmonic mean of more than one positive test, TargetSites_Rat_Female: no positive results) does the source give for `CCC1(CC)C(=O)N=C(O)NC1=O` here?
**A.** 45.7 mg/kg/day

**Q.** For `C[C@]12C=CC(=O)C=C1CC[C@@H]1[C@@H]2[C@@H](O)C[C@@]2(C)[C@H]1CC[C@]2(O)C(=O)CO`, which Potency [4] is on record?
**A.** 1.53 mg/kg/day

**Q.** With `CN(C)N=O` as the compound, how does the Potency (TD50_Rat_Note: TD50 is harmonic mean of more than one positive test, greater than ten-fold variation among TD50 values for positive res, TargetSites_Rat_Female: liver, vascular system) read?
**A.** 0.0959 mg/kg/day

**Q.** `CC(O)C(=O)O` (stereo not given) was tested. Which outcome [3] did it give?
**A.** inactive; no positive results

**Q.** How did the Potency [2] turn out when `COc1cc(S(C)=O)ccc1-c1nc2ccncc2[nH]1` (stereo not given) was run?
**A.** 70.5 mg/kg/day

**Q.** With `C1OC1C1CO1` (stereo not given) as the compound, how does the outcome [3] read?
**A.** inactive

**Q.** For `O=c1oc2c(O)c(O)cc3c(=O)oc4c(O)c(O)cc1c4c23`, which outcome [3] is on record?
**A.** inactive

**Q.** How did the outcome [3] turn out when `[CH3][Hg][Cl]` was run?
**A.** inactive; no positive results

**Q.** Which outcome [1] does the source give for `O=[N+]([O-])c1ccc(Cl)cc1` here?
**A.** inactive; no positive results

**Q.** For `O=P(OCCCl)(OCCCl)OCCCl`, which Potency (TD50_Rat_Note: TD50 is harmonic mean of more than one positive test, TargetSites_Rat_Female: kidney) is on record?
**A.** 86.7 mg/kg/day

**Q.** `Cc1cc(Cc2ccc(N)c(C)c2)ccc1N` was tested. Which Potency [5] did it give?
**A.** 7.38 mg/kg/day

**Q.** `Nc1nc(N)nc(-c2ccc([N+](=O)[O-])o2)n1` was tested. Which Potency (TargetSites_Rat_Female: mammary gland) did it give?
**A.** 1.71 mg/kg/day

**Q.** How did the Potency [5] turn out when `Cc1ccc(N=Nc2c(O)ccc3ccccc23)c([N+](=O)[O-])c1` was run?
**A.** 1170 mg/kg/day

**Q.** For `NC(=O)Cc1c([O-])on[n+]1Cc1ccccc1`, which Potency is on record?
**A.** 4.24 mg/kg/day

**Q.** For `CC1=C(C(=O)OC(C)C)C(c2cccc([N+](=O)[O-])c2)C(C(=O)OC2CN(C(c3ccccc3)c3ccccc3)C2)=C(N)N1` (stereo not given), which outcome [3] is on record?
**A.** inactive; no positive results

**Q.** `CC(=O)Nc1cccc2c1-c1ccccc1C2` was tested. Which outcome [3] did it give?
**A.** inactive

**Q.** With `Clc1ccc(C(c2ccc(Cl)cc2)C(Cl)(Cl)Cl)cc1` as the compound, how does the Potency [5] read?
**A.** 84.7 mg/kg/day

**Q.** How did the outcome [1] turn out when `O=C(O)c1ccc(O)c(O)c1` was run?
**A.** inactive; no positive results

**Q.** Which outcome [3] does the source give for `CCc1ccc(C(c2ccc(CC)cc2)C(Cl)Cl)cc1` here?
**A.** inactive; no positive results

**Q.** Which outcome [3] does the source give for `Cn1c(=O)c2[nH]cnc2n(C)c1=O` here?
**A.** inactive; no positive results

**Q.** How did the outcome [3] turn out when `O=C(O)CC[N+](=O)[O-]` was run?
**A.** inactive; no positive results

**Q.** How did the outcome [3] turn out when `O=[N+]([O-])c1ccc2nc[nH]c2c1` was run?
**A.** inactive; no positive results

**Q.** With `Clc1cc2c(cc1Cl)Oc1cc(Cl)c(Cl)cc1O2` as the compound, how does the Potency (TD50_Rat_Note: TD50 is harmonic mean of more than one positive test, greater than ten-fold variation among TD50 values for positive res, TargetSites_Rat_Female: liver, lung) read?
**A.** 2.35e-05 mg/kg/day

**Q.** Which results are given for `Cn1c(N)nc2c3cccnc3ccc21`?
**A.** Potency (TD50_Rat_Note: TD50 is harmonic mean of more than one positive test, greater than ten-fold variation among TD50 values for positive res, TargetSites_Rat_Female: clitoral gland, ear Zymbals gland, large intestine, liver, mammary gland, oral cavity, preputial gland, skin, small inte): 0.812 mg/kg/day; Potency (TargetSites_Rat_Female: ear Zymbals gland, liver, mammary gland, pancreas, urinary bladder, vascular system): 3.29 mg/kg/day

**Q.** `CNC(=O)Oc1cc(C)c(N(C)C)c(C)c1` was tested. Which outcome [3] did it give?
**A.** inactive; no positive results

**Q.** With `CC(C)(C)NC[C@H](O)COc1cccc2c1CCCC2=O` as the compound, how does the outcome [3] read?
**A.** inactive; no positive results

**Q.** `CCOc1ccc(NC(C)=O)cc1` was tested. Which Potency (TD50_Rat_Note: TD50 is harmonic mean of more than one positive test, TargetSites_Rat_Female: ear Zymbals gland, mammary gland, nasal cavity, urinary bladder) did it give?
**A.** 1250 mg/kg/day

**Q.** `COC(C)(C)C` was tested. Which Potency (TD50_Rat_Note: TD50 is harmonic mean of more than one positive test, TargetSites_Rat_Female: hematopoietic system) did it give?
**A.** 702 mg/kg/day

**Q.** With `CN1[C@@H]2CC(OC(=O)[C@@H](CO)c3ccccc3)C[C@H]1[C@@H]1O[C@@H]12` (stereo not given in full) as the compound, how does the outcome [3] read?
**A.** inactive; no positive results

**Q.** With `CCCCCc1cc(O)c2c(c1)OC(C)(C)[C@@H]1CCC(C)=C[C@@H]21` as the compound, how does the outcome [3] read?
**A.** inactive; no positive results

**Q.** Which outcome [3] does the source give for `CN(C)CCN(Cc1ccco1)c1ccccn1` here?
**A.** inactive; no positive results

**Q.** `CN[C@@H](C)[C@H](O)c1ccccc1` was tested. Which outcome [3] did it give?
**A.** inactive; no positive results

**Q.** With `CCN(C)N=O` as the compound, how does the Potency [4] read?
**A.** 0.0503 mg/kg/day

**Q.** `Cc1ccc(NC(N)=O)cc1` was tested. Which outcome [3] did it give?
**A.** inactive; no positive results
